From patent US9163018B2, “Method of treatment of age-related macular degeneration (AMD)” (Prana Biotechnology Limited, priority 2006, dated 2015)

Experiments:
[1] = Toxicity, visual observations in mice; conditions: 30 mg/kg; duration and visual observations
[2] = molecular target: T1, Abeta:Zn (25:50 μM) Synthetic Aggregations (Homo sapiens, UniProt P05067); assay: Disaggregation of Abeta:Zn synthetic aggregates (ThT fluorescence); type: biochemical; conditions: for Disaggregation % Aggregate reduction at 5 μM: 5 μM test compound; for EC50: Abeta:Zn 25:50 μM aggregates
T1 construct: PB Compound Mediated Dissolution of Aggregated Abeta 1-42; purchased Keck Laboratory, Yale University School of Medicine
Method in brief: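 Abeta1-42 (25 μM) with ZnCl2 (50 μM) and ThT (50 μM) in PBS pH 6.6 was preaggregated 24 h at 37 degrees with rotation. Aggregates were then exposed to compound (final 1-50 μM, DMSO) for 2 h at 37 degrees. ThT fluorescence was read at ex 450/em 480 nm.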

Aβ 1-42 = molecular target: T2, Aβ 1-42 (Homo sapiens, UniProt P05067); assay: Fluorometric H2O2 assay (inhibition of Abeta H2O2 production); type: biochemical; conditions: concentration required to inhibit 50% of Abeta H2O2 production; read-out: H2O2 IC50
T2 construct: The reaction solutions contained Aβ 1-42 at concentrations
Method in brief: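 Copper-dependent Aβ H2O2 production measured fluorometrically with deacetylated dichlorofluorescein plus HRP in PBS, pH 7.4. Incubation 60 min at 37 C, test compound included in wells. H2O2 quantified against H2O2 standards.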

[3] = test system: dityrosine oligomerization; assay: CuTy: inhibition of dityrosine oligomerization; type: biochemical; conditions: referenced to in-house standard (set as 100% inhibition)
[4] = test system: primary cortical neuronal cultured cells; assay: Test compound cytotoxicity, MTS assay, primary cortical neuronal cultures; type: cell-based, mouse; conditions: for Cytotox (% viable) Neuronal cells at 1 μM: 1 μM test compound; for Cytotox (% viable) Neuronal cells at 10 μM: 10 μM test compound
Method in brief: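 Primary cortical neurons were cultured five days in Neurobasal/B27, then exposed on day six to compounds (from 2.5 mM DMSO stocks) in medium minus antioxidants, in triplicate for 4 days at 37° C. Viability was measured by MTS, 2 h at 37° C, absorbance at 560 nm.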

[5] = test system: M17 human neuroblastoma cells; assay: Cytotoxicity, M17 human neuroblastoma cells; type: cell-based; conditions: for Cytotox (% viable) M17 cells at 1 μM: 1 μM test compound; for Cytotox (% viable) M17 cells at 10 μM: 10 μM test compound
Method: Assay 3. MTS Assay for Cell Viability
Cell viability is determined using the MTS assay. Culture medium is replaced with fresh neurobasal medium plus B27 supplements minus antioxidants. 1/10th volume MTS solution (Cell Titre 96 Aqueous One, Promega Corporation) and incubated at 37° C., 2 hrs. 200 microliter aliquots are measured with a spectrophotometer at 560 nm.

[6] = Mice plasma concentration after oral dose; type: in vivo; conditions: 30 min to 4 h after single or repeat oral dose of 30 mg/kg

T2 sequence (P05067 672-713 limits assumed): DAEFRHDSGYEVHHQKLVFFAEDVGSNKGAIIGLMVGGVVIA
T1 sequence (P05067 672-713 limits assumed): as above

Structure (SMILES) | Toxicity at 30 mg/kg [1] | Disaggregation % Aggregate reduction at 5 μM [2] [%] | IC50 (Aβ 1-42) [nM] | CuTy % inhibition of dityrosine oligomerization [3] | Cytotox (% viable) Neuronal cells at 1 μM [4] [%] | Cytotox (% viable) Neuronal cells at 10 μM [4] [%] | Cytotox (% viable) M17 cells at 1 μM [5] [%] | Cytotox (% viable) M17 cells at 10 μM [5] [%] | Mice plasma concentration [6] | EC50 [2] [nM]
O=c1c2c(Cl)cc(Cl)c(O)c2ncn1Cc1cccc(Cn2cnc3c(O)c(Cl)cc(Cl)c3c2=O)n1 [PB 1101] | 10 days, none | 45 | 4100 | 10% inhibition | 89 | 67 | 94.9 | 26.8 |  | 
CCC(C)n1cnc2c(O)c(Cl)cc(Cl)c2c1=O (stereo not drawn) [PB 1112] | 10 days, none | 46.4 |  | CuTy: 125% inhibition | 94 | 67 | 99.2 | 68.6 | Up to 2949 ng/ mL ng/mL | > 20000
Br.CCN(CC)Cc1nc2c(O)c(Cl)cc(Cl)c2c(=O)[nH]1 [PB 1128] | 10 days, none | 41 |  | CuTy: 100% inhibition | 100.6 | 93.7 | 106.5 | 99.1 | Up to 2289 ng/ mL ng/mL | 
CC(C)c1cnc2c(O)cccn2c1=O [PB 1135] | 10 days, none | 31 | 270 | CuTy: 90% inhibition |  |  | 99.7 | 45.6 | Up to 409 ng/ml ng/mL | > 20000
Br.CN(C)Cc1nc2c(O)c(Cl)cc(Cl)c2c(=O)[nH]1 [PB 1147] | 10 days, none | 12.5 |  | CuTy: 100% inhibition |  |  | 94.7 | 100.3 | Up tp 642.6 ng/ mL ng/mL | > 20000
O=c1c2c(Cl)cc(Cl)c(O)c2ncn1Cc1cn2ccccc2n1 [PB 1239] | 10 days, none |  | 480 | CuTy: 50% inhibition |  |  | 109.2 | 98.2 | Up to 98.3 ng/ mL ng/mL | 
O=c1c2c(Cl)cc(Cl)c(O)c2ncn1Cc1cccnc1 [PB 1240] | 10 days, none |  | 320 | CuTy: 60% inhibition |  |  | 106.4 | 100.2 | Up to 4023.4 ng/mL | 
O=c1c2c(Cl)cc(Cl)c(O)c2ncn1Cc1ccncc1 [PB 1241] | 10 days, none |  | 440 | CuTy: 80% inhibition | 98.4 | 90.9 | 105.4 | 90.4 | Up to 2181.1 ng/mL | 
O=c1c2c(Cl)cc(Cl)c(O)c2ncn1-c1ccccn1 [PB 1242] | 10 days, none |  | 280 | CuTy: 50% inhibition |  |  | 102.7 | 102.6 | Up to 144.2 ng/ mL ng/mL | 
Cn1ccnc1Cn1cnc2c(O)c(Cl)cc(Cl)c2c1=O [PB 1243] | 10 days, none |  | 380 | CuTy: 60% inhibition |  |  | 112 | 122.3 | Up to 13214.8 ng/mL | 
O=c1c2c(Cl)cc(Cl)c(O)c2ncn1C1=CCC=C1 [PB 1244] | 10 days, none |  | 1320 | CuTy: 10% inhibition |  |  | 125.7 | 114.8 | Up to 1477.4 ng/mL | 
O=c1c2c(Cl)cc(Cl)c(O)c2ncn1-c1ccc2[nH]ncc2c1 [PB 1246] | 10 days, none |  | 310 | CuTy: 120% inhibition |  |  | 104.3 | 73.5 | Up to 126 ng/ mL ng/mL | 
O=C1NC(=O)c2cc(-n3cnc4c(O)c(Cl)cc(Cl)c4c3=O)ccc21 [PB 1247] | 10 days, none |  | 560 | CuTy: 150% inhibition |  |  | 101.2 | 110.8 |  | 
O=C(O)Cn1cnc2c(O)c(Cl)cc(Cl)c2c1=O [PB 1249] | 10 days, none |  | 490 | CuTy: 100% inhibition |  |  | 105 | 100.7 | Up to 4830.2 ng/ml ng/mL | 
O=c1c2c(Cl)cc(Cl)c(O)c2ncn1Cc1ccn2ccnc2c1 [PB 1252] | 10 days, none |  | 720 | CuTy: 50% inhibition | 94.6 | 103.1 | 105.4 | 105.1 | Up to 1465.4 ng/mL | 
Br.CN1CCCC1Cn1cnc2c(O)c(Cl)cc(Cl)c2c1=O (stereo not drawn) [PB 1253] | 10 days, none |  | 430 | CuTy: 70% inhibition |  |  | 106.6 | 93.9 | Up to 382.5 ng/ mL ng/mL | 
O=c1c2c(Cl)cc(Cl)c(O)c2ncn1Cc1nccs1 [PB 1254] | 10 days, none |  | 250 | CuTy: 90% inhibition |  |  | 106.6 | 106 | Up tp 441.4 ng/ mL ng/mL | 
O=c1c2c(Cl)cc(Cl)c(O)c2ncn1Cc1nc2ccccc2s1 [PB 1257] | 10 days, none |  | 690 | CuTy: 60% inhibition |  |  | 111.1 | 80.9 | Up to 166.1 ng/ mL ng/mL | 
O=c1c2c(Cl)cc(Cl)c(O)c2ncn1CCNCc1ccncc1 [PB 1264] | 10 days, none |  | 450 | CuTy: 100% inhibition |  |  | 103 | 104.8 | Up to 1639.8 ng/mL | 
CN(C)Cc1nc2c(O)c(Cl)cc(Cl)c2c(=O)n1CC1CC1.Cl [PB 1267] | 10 days, none |  | 370 | CuTy: 110% inhibition |  |  | 94.4 | 74.5 | Up to 1166.6 ng/ml ng/mL | 
CCn1c(CN(C)C)nc2c(O)c(Cl)cc(Cl)c2c1=O.Cl [PB 1268] | 10 days, none |  | 360 | CuTy: 110% inhibition |  |  | 99.2 | 102.1 | Up to 975.9 ng/ml ng/mL | 
Br.CN(C)Cc1nc2c(O)c(Cl)cc(Cl)c2c(=O)n1C [PB 1269] | 10 days, 1/4 mild signs |  | 280 | CuTy: 110% inhibition |  |  | 109.3 | 114.7 | Up to 492.1 ng/ml ng/mL | 
O=c1c2c(Cl)cc(Cl)c(O)c2ncn1Nc1ccc(F)cc1F [PB-1100] | 10 days, none | 42 |  | CuTy: 10% inhibition | 100 | 92 | 108.1 | 80.5 | Up to 1,130.6 ng/mL | 
